Experimental data published in patent US20260199242A1, “PROCESSES FOR MAKING CYCLIC LIPID IMPLANTS FOR INTRAOCULAR USE” (Allergan, Inc., priority 2006, published 2026).

Tests used:
[1] = cited from earlier work
[2] = Potency of bimatoprost from melt-extruded implants as percent of label strength by HPLC (FIG. 1); type: physicochemical
Method: Typical extrusion temperatures for a PLGA implant are from about 85° C. to about 110° C. […] As shown by FIG. 1, five different formulation bimatoprost containing sustained release implants or drug delivery systems (“DDS”) were made. Proceeding from left to right to left along the x axis of FIG. 1 these five formulations were: The theoretical maximum potency of bimatoprost is by definition equal to the label strength (“LS”) of the bimatoprost. For example, the label strength of a one milligram implant which comprises 150 μg of bimatoprost is 150 μg. […] We determined the potency of the bimatoprost released from the implants made as a percent of their label strength using HPLC (high pressure liquid chromatography). Thus, the bimatoprost implants (each weighing about 1 mg) made were dissolved in 0.5 mL acetonitrile in a 10 mL volumetric flask and sonicated for 5 min. The flask was then filled to volume with diluent (72:18:10 water:acetonitrile:methanol); mixed well, and transferred to a HPLC vial for analysis. The HPLC analysis was performed using a Waters Alliance 2695 HPLC system, Waters Symmetry®C18 reverse-phase column 4.6 mm×75 mm, and a Waters 2487 UV detector. The conditions for analysis were flow rate of 1.5 mL/minute, UV wavelength of 210 nm, column temperature of 30° C. and mobile phase of 72:18:10 (water:acetonitrile:methanol, v/v/v) with 0.03% (w/v) trifluoroacetic acid. The injection volume of samples and standards assayed was 75 uL with a cycle time of 45 min.

[3] = lower temperature and faster rate in a low pH environment; cited from earlier work
[4] = test system: patients with age-related macular degeneration (ARMD); conditions: infusion; cited from earlier work

SMILES	solubility in water [1]	potency of the bimatoprost released from the DDS (percent of label strength) ([2]; DDS made by melt extrusion carried out at 57° C.)	potency of the bimatoprost released from the DDS (percent of label strength) ([2]; DDS made by melt extrusion carried out at 85° C.)	bimatoprost therapeutically inactive (loss of potency) ([2]; extrusion temperature of about 80° C. or higher)	temperature above which bimatoprost can degrade if heated [3]	visual acuity [4]
CCNC(=O)CCC/C=C\C[C@@H]1[C@@H](/C=C/[C@@H](O)CCc2ccccc2)[C@H](O)C[C@@H]1O [Bimatoprost]	slightly soluble	more than 90%	about 40%	≤ 50%	greater than 65 °C	
CCCCC[C@H](O)/C=C/[C@H]1[C@H](O)CC(=O)[C@@H]1CCCCCCC(=O)O [prostaglandin E1]						improvement in visual acuity
